Measured values from paper PMC3827197, “Antidiabetic Effects of Chamomile Flowers Extract in Obese Mice through Transcriptional Stimulation of Nutrient Sensors of the Peroxisome Proliferator-Activated Receptor (PPAR) Family” (PLoS ONE, 2013).

How the values were obtained:
PPARα = target: T1, PPARα (Homo sapiens, UniProt Q07869); assay: Reporter gene assay of transcriptional activation, PPARα (HEK 293, GAL4-PPAR-LBD); assay type: cell-based; conditions: relative to reference compound GW7647
T1 construct: HEK 293 cells were stably expressing a GAL4-PPAR-LBD fusion protein and an UAS-beta-lactamase reporter gene; host or cells: HEK 293
T1 sequence (Q07869 239-466 limits assumed): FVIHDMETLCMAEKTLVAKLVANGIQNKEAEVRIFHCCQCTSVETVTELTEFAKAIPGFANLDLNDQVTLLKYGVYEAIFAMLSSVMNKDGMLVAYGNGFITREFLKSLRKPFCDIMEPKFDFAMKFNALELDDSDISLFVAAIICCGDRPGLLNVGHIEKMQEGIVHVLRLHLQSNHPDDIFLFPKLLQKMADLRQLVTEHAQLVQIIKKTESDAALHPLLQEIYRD
Experimental: Transcriptional activation of PPARs was assessed in cellular reporter gene assays according to the manufacturer’s protocols (GeneBLAzer PPAR alpha/gamma/delta Assay, Life Technologies). Briefly, HEK 293 cells were stably expressing a GAL4-PPAR-LBD fusion protein and an UAS-beta-lactamase reporter gene. Cells were incubated with different concentrations of compounds resulting in differential expression of the reporter gene. Binding and activation assays were measured with the POLARstar Omega (BMG LABTECH, Offenburg, Germany). Data were fitted using GraphPad Prism 5.0 according equation: Y=Bottom + (Top-Bottom)/(1+10^((LogEC50-X)*HillSlope)) with variable Hill slope.

[1] = tested on: PPARα target genes in HepG2 cells; assay: qPCR gene expression in HepG2 hepatocytes, with PPARα siRNA knockdown; conditions: 300 µg/ml CFE or 10 µM GW7647, 24 h, vs vehicle
Experimental: Specificity of PPARα-driven modulation was investigated in siRNA-mediated knockdown in human hepatocytes and subsequent real-time PCR detection. Therefore, HepG2 cells were seeded in 24-well-plates (Nunc) at a density of 40,000 cells per well.

HFD-fed C57BL/6 mice = assay: Therapy study in insulin-resistant obese HFD-fed (DIO) mice; conditions: CFE 200 mg/kg/d or RGZ 4 mg/kg/d

Row | Efficacy PPARα (PPARα) [%] | SMILES | Expression of PPARα target genes (ACOX2, CPT 2, ECH1, HMGCS2) [1] | Gene expression of inflammatory markers in WAT (HFD-fed C57BL/6 mice; 6 weeks, qPCR) | HOMA-IR insulin resistance, decrease (HFD-fed C57BL/6 mice; after 2 weeks) [%]
1 | 100 | CC(C)(Sc1ccc(CCN(CCCCC2CCCCC2)C(=O)NC2CCCCC2)cc1)C(=O)O [GW7647] | significantly induced expression | – | –
2 | – | CN(CCOc1ccc(CC2SC(=O)NC2=O)cc1)c1ccccn1 (stereo not shown) [RGZ, rosiglitazone] | – | remained largely unchanged | 67
